Data taken from US11142588B2, “Polypeptides which bind C-X-C chemokine receptor type 4 (CXCR4) and methods of treating or reducing the risk of fibrosis and cancer” (AdAlta Limited, priority 2015, dated 2021).

Legend:
[1] = system: white blood cells, LSK and LSKSLAM cells in peripheral blood; assay: Stem cell mobilisation in mice after i.v. injection; format: in vivo, mouse; details: 1 and 3 hours after i.v. injection, compared to AMD3100
Description: After 1 and 3 hours, mice were euthanized and peripheral blood (PB) harvested. Spleens were harvested and weighed to assess for splenomegaly (enlargement of the spleen). Samples were lysed to remove red blood cells and 4000 cells plated for LPP (low-proliferative potential) and CFU-HPP (colony forming unit-high proliferative potential) colonies (colony counting 7 days post-plating). The remaining cells were stained with an antibody cocktail to assess lineage-committed, stem and progenitor cell content. Flow cytometric analysis was used to calculate numbers of lineage-committed cells, haemopoietic stem and progenitor cells as well as enriched HSC per volume of PB.

[2] = system: normal and IPF lung fibroblasts; assay: Wound healing invasion assay of lung fibroblasts; format: cell-based, human; details: 130 μg/ml
Summary of the method: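 Normal and slow- or rapid-progressing IPF lung fibroblasts were plated overnight on basement membrane extract (50 μg/ml coating), then overlaid with BME polymerised at 37° C for 15 min. Wound invasion was imaged every 2 h for about 50 h and quantified by image analysis.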

CXCR4 [3] = biological target: T1, CXCR4 (Homo sapiens, UniProt P61073); assay: β-arrestin BRET assay, antagonist mode with 100 nM SDF-1; format: cell-based; set-up: expressed in transfected cells; host or cells: HEK293FT; details: read-out: IC50 (nM) in β-Arrestin BRET assay (Antagonist mode in the presence of 100 nM SDF-1)
Summary of the method: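 HEK293FT cells transiently co-expressed CXCR4/Rluc8 and β-arrestin2/Venus and were read at 37 °C with coelenterazine h or EnduRen substrate. i-Bodies were tested at ten concentrations with 100 nM SDF-1. BRET signal is the 520-540/400-475 nm emission ratio minus the vehicle ratio; mean±S.E.M. of four experiments in duplicate.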

CXCR4 [4] = biological target: T1, CXCR4; assay: Calcium flux assay (Screen Quest Fluo-8, FLIPR) in antagonist mode; format: cell-based; details: SDF-1 at EC80

T1 sequence (P61073 whole entry): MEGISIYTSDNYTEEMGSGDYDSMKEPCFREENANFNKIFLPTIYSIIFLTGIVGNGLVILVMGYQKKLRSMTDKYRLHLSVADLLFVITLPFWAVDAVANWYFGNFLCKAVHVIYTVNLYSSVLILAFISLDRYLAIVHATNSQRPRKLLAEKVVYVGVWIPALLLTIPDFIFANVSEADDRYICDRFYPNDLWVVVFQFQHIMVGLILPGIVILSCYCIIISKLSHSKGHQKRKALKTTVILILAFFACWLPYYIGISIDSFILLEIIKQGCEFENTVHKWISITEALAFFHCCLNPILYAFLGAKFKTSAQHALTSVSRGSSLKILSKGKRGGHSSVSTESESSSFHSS

IC50 (CXCR4 [3]) [nM]	Calcium Inhibition EC50 (CXCR4 [4])	Molecule	mobilisation of white blood cells [1]	invasion of normal lung fibroblasts [2]	migration of IPF lung fibroblasts ([2]; slow and rapid IPF progressors)
–	–	AM3-114: affinity matured CXCR4 i-body, SEQ ID NO: 40	No mobilisation	neither i-body had any effect	specifically inhibited migration
12700	uM	AM3-523: affinity matured CXCR4 i-body, SEQ ID NO: 56 (protein, protein sequence encoding AM3-523) LQVDIVPSQGEISVGESKFFLCQVAGSGSHMRISWFSPNGEKLTPNQQRISVVWNDDSSSTLTIYNANIDDAGIYKCVVWVGGYRHRALVLGEATVNVKIFQ	No mobilisation	–	–
